Paper PMC3391261, “Characteristic Features of Kynurenine Aminotransferase Allosterically Regulated by (Alpha)-Ketoglutarate in Cooperation with Kynurenine” (PLoS ONE, 2012)
Read-outs that look alike come from different tables or passages of the source. One block for each molecule: values may come before it.

What was measured:
PhKAT [1] = target: T1, PhKAT (Pyrococcus horikoshii, UniProt O57946); assay: Spectrophotometric titration of PhKAT with PLP (absorbance change at 360 nm, 2-site binding model with hill slopes); design: species or system Pyrococcus horikoshii OT3; conditions: 25°C
Experimental: PhKAT was added to a 20 µM (final concentration) PLP solution in a final volume of 500 µL of 50 mM HEPES–NaOH buffer (pH 7.5) containing 100 mM NaCl. Titration of PhKAT with PLP was monitored by absorption spectroscopy. Aliquots of PLP (1, 2, 4, 8, 16, 32, and 64 µM) were added to the cuvette containing PhKAT at 25°C. Spectra were recorded after the addition of PLP, and the PLP-binding constant (K d) was calculated from the difference in absorbance at 360 nm, and the PLP-binding curve for PhKAT was obtained by the 2-site binding model with variable slopes using prism5.

PhKAT [2] = target: T1, PhKAT; assay: Isothermal titration calorimetry for cofactor and substrate binding; design: species or system Pyrococcus horikoshii OT3; conditions: PLP binding to PhKAT; judged from shape of binding curve
Description: To avoid air bubbles, we degassed solutions under vacuum before use. […] Power peaks were integrated, and the resultant reaction […] were plotted against the molar cofactor and/or substrate/protein ratios and fitted using the “sequential binding sites” model according to the manufacturer's instructions with origin version 5.0 (MicroCal Software), thus yielding the dissociation constant K d.

PhKAT [3] = target: T1, PhKAT; assay: KAT transaminase kinetics, KYNA production from KYN monitored at 332 nm; conditions: 100 µM KYN; keto acid as amino acceptor
Experimental: KYNA production was monitored spectrophotometrically using a U-2810 UV–Vis spectrophotometer (Hitachi).
The transaminase abilities of KAT were assayed by measuring the rate of the KYNA production. […] KYNA production was monitored by the increase in A332 at 25°C. The quantities of KYNA were determined spectroscopically with an extinction coefficient of 9.8 mM^−1⋅cm^−1 at 332 nm.

[4] = substrate: CCC(=O)C(=O)O; assay: purified protein, by the assay type; conditions: other: 100 µM KYN; keto acid as amino acceptor; pH 7.5; 25.0 °C
Experimental: (§1) PLP-dependent KAT activity was assayed in 500 µL of 50 mM HEPES–NaOH buffer (pH 7.5) containing 100 mM NaCl, 10 µM PhKAT, 15 µM PLP, 20 µM KYN, and 64 µM 2OG. Assays were performed at room temperature (25°C), and the reaction was initiated by the addition of 2OG. KYNA production was monitored spectrophotometrically using a U-2810 UV–Vis spectrophotometer (Hitachi).
(§2) The transaminase abilities of KAT were assayed by measuring the rate of the KYNA production. In a total volume of 500 µL, the reaction mixture contained 10 µM PhKAT (dimer: 5 µM); 12 µM PLP; 0.08, 0.1, 0.4, 0.8, 1, 1.2, 2, 4, 6, 8, 12, 16, 20 and 24 µM 2OG; 0.02, 0.08, 0.1, 0.4, 0.8, 1, 1.2, 2, 4, 6, 8, 12, 16, 20 and 24 µM OXA; 50, or 100 µM KYN; 50 mM HEPES–NaOH buffer (pH 7.5); 100 mM NaCl; 0.4, 0.8, 1, 4, 8, 12 and 16 µM α-KMB, and/or 0.4, 0.8, 1, 4, 8, 12, 16 and 20 µM α-KBA. KYNA production was monitored by the increase in A332 at 25°C. The quantities of KYNA were determined spectroscopically with an extinction coefficient of 9.8 mM^−1⋅cm^−1 at 332 nm.

[5] = substrate: CSCCC(=O)C(=O)O; assay: purified protein, by the assay type; conditions: other: 100 µM KYN; keto acid as amino acceptor; pH 7.5; 25.0 °C
Experimental: as §1, §2

[6] = target: the molecule itself; assay: crystal structure; co-crystals of PhKAT with PLP (1:1), PLP and 2OG (1:1:1 or 1:1:2), sitting-drop vapor diffusion at 4°C; space group C2, two chains in the asymmetric unit

Molecule: Cc1ncc(COP(=O)(O)O)c(C=O)c1O [PLP, Pyridoxal phosphate]
Kd (PhKAT [1]; 10 µM PhKAT, pH 7.5, read-out: Kd1 (dissociation constant for PLP, first binding site)): 25.5 µM
Kd (PhKAT [1]; 10 µM PhKAT, pH 7.5, read-out: Kd2 (dissociation constant for PLP, second binding site)): 1.77 µM
Kd (PhKAT [1]; 20 µM PhKAT, pH 7.5, read-out: Kd1 (dissociation constant for PLP, first binding site)): 9.65 µM
Kd (PhKAT [1]; 20 µM PhKAT, pH 7.5, read-out: Kd2 (dissociation constant for PLP, second binding site)): 1.92 µM
dissociation constant (apparent) of second binding site in PhKAT (PhKAT [2]): approximately femtomole order

B1: PhKAT (Pyrococcus horikoshii OT3) (protein)
chain: MHEDVQLNIYVHSQEGIGMEENIKSMLGDVERFFSKKALEMRASEVRELLKLVETSDIISLAGGLPNPKTFPKEIIRDILVEIMEKYADKALQYGTTKGFTPLRETLMKWLGKRYGISQDNDIMITSGSQQALDLIGRVFLNPGDIVVVEAPTYLAALQAFNFYEPQYIQIPLDDEGMKVEILEEKLKELKSQGKKVKVVYTVPTFQNPAGVTMNEDRRKYLLELASEYDFIVVEDDPYGELRYSGNPEKKIKALDNEGRVIYLGTFSKILAPGFRIGWMVGDPGIIRKMEIAKQSTDLCTNVFGQVVAWRYVDGGYLEKHIPEIRKFYKPRRDAMLEALEEFMPEGVKWTKPEGGMFIWVTLPDGIDSKKMLERAIKKGVAYVPGEAFYAHRDVKNTMRLNFTYVDEDKIMEGIKRLAETIKEELKA
Km [4]: 1.73 µM
Km [5]: 2.41 µM

B2: Kynurenine aminotransferase from Pyrococcus horikoshii OT3 (enzyme, UniProt O57946 1-428, looked up)
chain: MHEDVQLNIYVHSQEGIGMEENIKSMLGDVERFFSKKALEMRASEVRELLKLVETSDIISLAGGLPNPKTFPKEIIRDILVEIMEKYADKALQYGTTKGFTPLRETLMKWLGKRYGISQDNDIMITSGSQQALDLIGRVFLNPGDIVVVEAPTYLAALQAFNFYEPQYIQIPLDDEGMKVEILEEKLKELKSQGKKVKVVYTVPTFQNPAGVTMNEDRRKYLLELASEYDFIVVEDDPYGELRYSGNPEKKIKALDNEGRVIYLGTFSKILAPGFRIGWMVGDPGIIRKMEIAKQSTDLCTNVFGQVVAWRYVDGGYLEKHIPEIRKFYKPRRDAMLEALEEFMPEGVKWTKPEGGMFIWVTLPDGIDSKKMLERAIKKGVAYVPGEAFYAHRDVKNTMRLNFTYVDEDKIMEGIKRLAETIKEELKA
modifications: PLP in a Schiff-base link with Lys269
notes: Kynurenine aminotransferase (PhKAT) of Pyrococcus horikoshii OT3, 428 residues; residues 25-428 seen in the crystal structures, residues 1-24 and the N-terminal His-tag disordered; also called PhKAT; KAT; source: E. coli BL21-CodonPlus (DE3), pET28a-PhKAT, purified (His TALON cartridge); not shown: His6, N-terminal, kept
stoichiometry N [6]: 2

Other lines, results leading:

H-value (allosteric sigmoidal model) (PhKAT [3]): 1.79
Molecule: CCC(=O)C(=O)O [α-KBA, 2-ketobutyric acid]

H-value (allosteric sigmoidal model) (PhKAT [3]): 3.57
Molecule: CSCCC(=O)C(=O)O [α-KMB, α-keto-γ-(methylthio) butyric acid]
